Results on 42 compounds are retold here after patent US20230391739A1, “ARYL DERIVATIVES FOR TREATING TRPM3 MEDIATED DISORDERS” (Katholieke Universiteit Leuven, priority 2020, published 2023).

Each structure is given as a SMILES string. Some results are limits rather than exact numbers.

The target of the assay is T1, mouse TRPM3α2 (mTRPM3) ion channel (Mus musculus, UniProt J9SQF3).
T1 construct: expressed in transfected cells; host or cells: flip-in HEK293
T1 sequence (J9SQF3 1-1709 isoform J9SQF3-12): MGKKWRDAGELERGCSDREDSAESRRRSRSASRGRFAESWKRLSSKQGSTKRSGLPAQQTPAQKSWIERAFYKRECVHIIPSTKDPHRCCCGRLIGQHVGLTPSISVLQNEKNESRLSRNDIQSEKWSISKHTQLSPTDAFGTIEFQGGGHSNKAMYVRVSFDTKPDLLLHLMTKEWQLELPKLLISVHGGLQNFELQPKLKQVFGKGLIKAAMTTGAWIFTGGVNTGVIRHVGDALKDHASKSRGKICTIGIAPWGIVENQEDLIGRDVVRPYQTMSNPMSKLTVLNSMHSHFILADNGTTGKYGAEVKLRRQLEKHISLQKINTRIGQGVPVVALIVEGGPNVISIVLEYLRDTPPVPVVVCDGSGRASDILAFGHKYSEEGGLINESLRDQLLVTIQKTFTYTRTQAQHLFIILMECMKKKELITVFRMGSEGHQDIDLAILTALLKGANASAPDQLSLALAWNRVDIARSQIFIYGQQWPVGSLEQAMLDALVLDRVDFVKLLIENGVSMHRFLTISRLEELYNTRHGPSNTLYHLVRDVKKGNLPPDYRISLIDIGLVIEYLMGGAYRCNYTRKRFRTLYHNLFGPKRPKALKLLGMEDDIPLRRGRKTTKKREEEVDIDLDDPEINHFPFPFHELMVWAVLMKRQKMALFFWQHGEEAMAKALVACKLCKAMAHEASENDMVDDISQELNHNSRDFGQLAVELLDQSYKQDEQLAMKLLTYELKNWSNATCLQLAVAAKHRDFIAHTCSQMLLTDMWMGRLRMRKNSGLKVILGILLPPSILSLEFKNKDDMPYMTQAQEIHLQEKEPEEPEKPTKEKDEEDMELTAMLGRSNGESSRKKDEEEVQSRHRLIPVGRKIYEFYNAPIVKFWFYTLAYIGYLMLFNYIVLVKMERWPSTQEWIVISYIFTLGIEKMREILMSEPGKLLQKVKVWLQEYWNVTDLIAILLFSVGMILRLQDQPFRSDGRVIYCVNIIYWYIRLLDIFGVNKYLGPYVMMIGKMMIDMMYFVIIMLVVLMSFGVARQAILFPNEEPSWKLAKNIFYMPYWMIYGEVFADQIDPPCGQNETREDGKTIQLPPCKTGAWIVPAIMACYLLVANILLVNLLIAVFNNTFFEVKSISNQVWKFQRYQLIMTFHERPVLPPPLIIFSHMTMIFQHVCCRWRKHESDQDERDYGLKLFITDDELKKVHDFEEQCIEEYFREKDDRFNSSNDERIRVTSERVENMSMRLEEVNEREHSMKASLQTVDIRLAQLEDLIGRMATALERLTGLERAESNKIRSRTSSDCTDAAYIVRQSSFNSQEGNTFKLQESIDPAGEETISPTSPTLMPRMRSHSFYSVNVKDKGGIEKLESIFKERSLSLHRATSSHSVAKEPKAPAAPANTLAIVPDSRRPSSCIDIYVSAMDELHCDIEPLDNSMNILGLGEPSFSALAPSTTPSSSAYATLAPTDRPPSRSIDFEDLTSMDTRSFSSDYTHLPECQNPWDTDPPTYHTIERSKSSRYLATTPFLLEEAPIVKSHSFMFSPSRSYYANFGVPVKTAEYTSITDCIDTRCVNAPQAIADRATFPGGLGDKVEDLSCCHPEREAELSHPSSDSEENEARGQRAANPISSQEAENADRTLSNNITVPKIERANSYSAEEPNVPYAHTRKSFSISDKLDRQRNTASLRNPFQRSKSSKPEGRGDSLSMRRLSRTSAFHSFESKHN
The experiment in a line: TRPM3 ion channel driven Ca2+ uptake, Fluo-4 AM assay, PS-stimulated (mTRPM3). In kind it is cell-based. The conditions noted are these: TRPM3 overexpressing flip-in HEK293 cells stimulated with Pregnenolone sulfate (PS) 50 μM, activity ranges A, B, C. An outline of the steps:
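Ca²⁺ influx through mouse TRPM3α2, opened by 50 μM pregnenolone sulfate, was tracked with Fluo-4 AM in stably transfected HEK293 cells read directly after seeding onto pre-dispensed compound.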
`Cc1oc2ccc(OCc3ccccc3)cc2c1C(=O)NC1CCN(c2ncccn2)CC1` [Cpd 230, 5-(benzyloxy)-2-methyl-N-(1-(pyrimidin-2-yl)piperidin-4-yl)benzofuran-3-carboxamide] came in with an IC50 of less than 1000 nM.

Compound `Cc1oc2ccc(OCc3ccccc3)cc2c1C(=O)NC1CCC(O)C1` (stereo not drawn) [Cpd 086, 5-(benzyloxy)-N-(3-hydroxycyclopentyl)-2-methylbenzofuran-3-carboxamide] registered an IC50 of less than 1000 nM.

In the case of `Cc1oc2ccc(OCc3ccccc3)cc2c1C(=O)Nc1ccccc1` [Cpd 058, 5-(benzyloxy)-2-methyl-N-phenylbenzofuran-3-carboxamide], the IC50 is less than 1000 nM.

In turn, `Cc1oc2c(F)cc(OCc3ccccc3)cc2c1C(=O)NC1CNCC1(F)F` (single isomer, unassigned) [Cpd 306-En 2] showed an IC50 of 1000 to 20000 nM.

For the compound `Cc1oc2ccc(OCc3c(F)cccc3Cl)cc2c1C(=O)O` [Cpd 021, 5-((2-chloro-6-fluorobenzyl)oxy)-2-methylbenzofuran-3-carboxylic acid], the IC50 is 1000 to 20000 nM.

In the case of `Cc1oc2ccc(OCc3ccccc3)cc2c1C(=O)N1CCCCC1` [Cpd 047, (5-(benzyloxy)-2-methylbenzofuran-3-yl)(piperidin-1-yl)methanone], the IC50 is greater than 20000 nM.

`Cc1oc2ccc(OCc3ccccc3F)cc2c1C(=O)NC1(CO)CC1` [Cpd 325, 5-((2-fluorobenzyl)oxy)-N-(1-(hydroxymethyl)cyclopropyl)-2-methylbenzofuran-3-carboxamide] yielded an IC50 of less than 1000 nM.

Compound `Cc1oc2ccc(OCc3ccccc3)cc2c1C(N)=O` [Cpd 035, 5-(benzyloxy)-2-methylbenzofuran-3-carboxamide] came in with an IC50 of less than 1000 nM.

With `Cc1ccc(COc2ccc3oc(C)c(C(=O)NS(=O)(=O)C4CC4)c3c2)cc1` [Cpd 169, N-(cyclopropylsulfonyl)-2-methyl-5-((4-methylbenzyl)oxy)benzofuran-3-carboxamide], the IC50 lay within 1000 to 20000 nM.

The compound `Cc1oc2ccc(OCc3ccccc3)cc2c1C(=O)NCC1CCCN1` (stereo not drawn) [Cpd 078, 5-(benzyloxy)-2-methyl-N-(pyrrolidin-2-ylmethyl)benzofuran-3-carboxamide] came in with an IC50 of less than 1000 nM.

The compound `Cc1oc2ccc(OC(CN(C)C)c3ccccc3)cc2c1C(=O)N[C@@H](CO)C(N)=O` (single isomer, unassigned) [Cpd 347-En 2] showed an IC50 of less than 1000 nM.

Compound `Cc1oc2ccc(OC(C)c3ccccc3)cc2c1C(=O)N[C@@H](CO)C(N)=O` (single isomer, unassigned) [Cpd 336-Dia 1] gave an IC50 of less than 1000 nM.

For the compound `Cc1oc2ccc(OCc3ccccc3)cc2c1C(=O)NC1CC(=O)N(C)C1` (stereo not drawn) [Cpd 110, 5-(benzyloxy)-2-methyl-N-(1-methyl-5-oxopyrrolidin-3-yl)benzofuran-3-carboxamide], the IC50 fell in the range of 1000 to 20000 nM.

On to `Cc1oc2ccc(OCc3ccccc3)cc2c1C(=O)N[C@H]1CCCNC1=O` [Cpd 109, (S)-5-(benzyloxy)-2-methyl-N-(2-oxopiperidin-3-yl)benzofuran-3-carboxamide], for which the IC50 was less than 1000 nM.

Compound `COc1ccccc1COc1ccc2oc(C)c(C(=O)NS(=O)(=O)C3CC3)c2c1` [Cpd 199, N-(cyclopropylsulfonyl)-5-((2-methoxybenzyl)oxy)-2-methylbenzofuran-3-carboxamide] gave an IC50 of less than 1000 nM.

Turning to `Cc1oc2ccc(OC(C)c3ccccc3)cc2c1C(=O)N[C@@H](CO)C(N)=O` (single isomer, unassigned) [Cpd 336-Dia 2], the IC50 is less than 1000 nM.

As to `COCCCNC(=O)c1c(C)oc2ccc(OCc3ccccc3)cc12` [Cpd 056, 5-(benzyloxy)-N-(3-methoxypropyl)-2-methylbenzofuran-3-carboxamide], the IC50 fell in the range of 1000 to 20000 nM.

For the compound `Cc1oc2ccc(OCc3ccccc3)cc2c1C(=O)NCC1CCOCC1` [Cpd 122, 5-(benzyloxy)-2-methyl-N-((tetrahydro-2H-pyran-4-yl)methyl)benzofuran-3-carboxamide], the IC50 was in the range of 1000 to 20000 nM.

`Cc1oc2ccc(OCc3ccccc3)cc2c1C(=O)NCc1ccccn1` [Cpd 099, 5-(benzyloxy)-2-methyl-N-(pyridin-2-ylmethyl)benzofuran-3-carboxamide] yielded an IC50 of 1000 to 20000 nM.

On to `Cc1oc2ccc(OCc3ccccc3F)cc2c1C(=O)N[C@@H]1COC[C@H]1O` (relative stereo) [Cpd 330-En 2], for which the IC50 was less than 1000 nM.

For `Cc1oc2ccc(OCc3ccccc3)cc2c1C(=O)NCC(O)CO` (stereo not drawn) [Cpd 057, 5-(benzyloxy)-N-(2,3-dihydroxypropyl)-2-methylbenzofuran-3-carboxamide], the half-inhibitory concentration (IC50) is less than 1000 nM.

For the compound `Cc1oc2ccc(OCc3ccccc3)cc2c1C(=O)NC1CCOCC1` [Cpd 088, 5-(benzyloxy)-2-methyl-N-(tetrahydro-2H-pyran-4-yl)benzofuran-3-carboxamide], the IC50 is less than 1000 nM.

`Cc1oc2ccc(OCc3ccccc3)cc2c1C(=O)N[C@H]1C[C@H]2CC[C@@H](C1)N2C` [Cpd 183, 5-(benzyloxy)-2-methyl-N-((1R,3r,5S)-8-methyl-8-azabicyclo[3.2.1]octan-3-yl)benzofuran-3-carboxamide] displayed an IC50 of less than 1000 nM.

As for `Cc1oc2ccc(OCc3ccccc3)cc2c1C(=O)N[C@H]1C[C@@H](O)C1` [Cpd 054, 5-(benzyloxy)-N-(cis-3-hydroxycyclobutyl)-2-methylbenzofuran-3-carboxamide], the IC50 is less than 1000 nM.

Take `Cc1oc2ccc(OCc3cccc(F)c3)cc2c1C(=O)NS(=O)(=O)C1CC1` [Cpd 176, N-(cyclopropylsulfonyl)-5-((3-fluorobenzyl)oxy)-2-methylbenzofuran-3-carboxamide]: the IC50 is less than 1000 nM.

For the compound `Cc1oc2ccc(OCc3ccc(F)cc3Cl)cc2c1C(=O)O` [Cpd 022, 5-((2-chloro-4-fluorobenzyl)oxy)-2-methylbenzofuran-3-carboxylic acid], the IC50 lay within 1000 to 20000 nM.

Take `Cc1cc(CNC(=O)c2c(C)oc3ccc(OCc4ccccc4)cc23)no1` [Cpd 105, 5-(benzyloxy)-2-methyl-N-((5-methylisoxazol-3-yl)methyl)benzofuran-3-carboxamide]: the IC50 was less than 1000 nM.

Regarding `Cc1oc2ccc(OCc3ccccc3)cc2c1C(=O)N(C)C1CCN(C)CC1` [Cpd 156, 5-(benzyloxy)-N,2-dimethyl-N-(1-methylpiperidin-4-yl)benzofuran-3-carboxamide], the IC50 is 1000 to 20000 nM.

Consider `Cc1oc2ccc(OCc3ccccc3)cc2c1C(=O)NC1COC1` [Cpd 043, 5-(benzyloxy)-2-methyl-N-(oxetan-3-yl)benzofuran-3-carboxamide], for which the IC50 is less than 1000 nM.

`Cc1oc2ccc(OCc3ccccc3)cc2c1C(=O)NC1CNC(=O)C1` (stereo not drawn) [Cpd 068, 5-(benzyloxy)-2-methyl-N-(5-oxopyrrolidin-3-yl)benzofuran-3-carboxamide] registered an IC50 of 1000 to 20000 nM.

`Cc1oc2ccc(OCc3ccccc3)cc2c1C(=O)NC1CCN(CCN(C)C)CC1` [Cpd 225, 5-(benzyloxy)-N-(1-(2-(dimethylamino)ethyl)piperidin-4-yl)-2-methylbenzofuran-3-carboxamide] had an IC50 of 1000 to 20000 nM.

The compound `Cc1oc2ccc(OCc3ccccc3)cc2c1C(=O)NC1CNCCC1F` (single isomer, unassigned) [Cpd 130-Dia 2] gave an IC50 of less than 1000 nM.

`Cc1oc2ccc(OCc3cccc(OC(F)(F)F)c3)cc2c1C(=O)O` [Cpd 028, 2-methyl-5-((3-(trifluoromethoxy)benzyl)oxy)benzofuran-3-carboxylic acid] yielded an IC50 greater than 20000 nM.

As for `Cc1oc2ccc(OCc3c(F)cccc3Cl)cc2c1C(=O)N(C)C` [Cpd 065, 5-((2-chloro-6-fluorobenzyl)oxy)-N,N,2-trimethylbenzofuran-3-carboxamide], the IC50 is 1000 to 20000 nM.

As for `Cc1oc2ccc(OCc3ccccc3F)cc2c1C(=O)N[C@H]1CCNC1` [Cpd 095, (S)-5-((2-fluorobenzyl)oxy)-2-methyl-N-(pyrrolidin-3-yl)benzofuran-3-carboxamide], the IC50 is less than 1000 nM.

On to `Cc1oc2ccc(OCc3ccc(F)cc3)cc2c1C(=O)NS(=O)(=O)C1CC1` [Cpd 177, N-(cyclopropylsulfonyl)-5-((4-fluorobenzyl)oxy)-2-methylbenzofuran-3-carboxamide], for which the IC50 lay within 1000 to 20000 nM.

Take `Cc1oc2ccc(OCc3ccccc3)cc2c1C(=O)NC1CNCC1(F)F` (stereo not drawn) [Cpd 137, 5-(benzyloxy)-N-(4,4-difluoropyrrolidin-3-yl)-2-methylbenzofuran-3-carboxamide]: the IC50 was less than 1000 nM.

For `Cc1cc(C)c(CNC(=O)c2c(C)oc3ccc(OCc4ccccc4)cc23)c(=O)[nH]1` [Cpd 200, 5-(benzyloxy)-N-((4,6-dimethyl-2-oxo-1,2-dihydropyridin-3-yl)methyl)-2-methylbenzofuran-3-carboxamide], the IC50 is greater than 20000 nM.

`Cc1oc2ccc(OCc3ccccc3)cc2c1C(=O)N1CCCC(c2nc(C(C)C)no2)C1` (stereo not drawn) [Cpd 243, (5-(benzyloxy)-2-methylbenzofuran-3-yl)(3-(3-isopropyl-1,2,4-oxadiazol-5-yl)piperidin-1-yl)-methanone]: the IC50 was greater than 20000 nM.

The compound `Cc1oc2ccc(OCc3ccccc3)cc2c1C(=O)N[C@H]1C[C@H](O)C1` [Cpd 053, 5-(benzyloxy)-N-(trans-3-hydroxycyclobutyl)-2-methylbenzofuran-3-carboxamide] came in with an IC50 of less than 1000 nM.

Consider `Cc1oc2ccc(OCc3ccccc3)cc2c1C(=O)NC1CCCCC1` [Cpd 066, 5-(benzyloxy)-N-cyclohexyl-2-methylbenzofuran-3-carboxamide], for which the IC50 was less than 1000 nM.

`Cc1oc2ccc(OC(C)c3ccccc3C(F)(F)F)cc2c1C(=O)N[C@H]1CCN(C(=O)OC(C)(C)C)C1` (mixture of isomers) [Cpd 267, rac-tert-butyl (3R)-3-(2-methyl-5-(1-(2-(trifluoromethyl)phenyl)ethoxy)benzofuran-3-carboxamido)pyrrolidine-1-carboxylate] registered an IC50 greater than 20000 nM.
